The text below walks through data of patent US5310929A, “Prodrugs of imidazole carboxylic acids as angiotensin II receptor antagonists” (E. I. Du Pont de Nemours and Company, priority 1992, dated 1994).

One experiment deals with AII receptor. Put plainly: Ligand-receptor binding assay, displacement of [125I]AII from rat adrenal cortex particulate fraction. Conditions: 0.05 nM [125I]AII, 1 h incubation, read-out: Angiotensin II Receptor Binding IC50. The procedure:
Angiotensin-II (AII) produces numerous biological responses (e.g. vasoconstriction) through stimulation of its receptors on cell membranes. […] After a 1 h incubation the reaction was terminated by addition of cold assay buffer. The bound and free radioactivity were rapidly separated through glass-fiber filters, and the trapped radioactivity was quantitated by scintillation counting.
For orientation: In a radioligand displacement assay an active substance lowers the binding of a labelled ligand.

The subject of another experiment is Renal Hypertensive Rats. Put plainly: Antihypertensive effect in awake renal hypertensive rats (ligation of left renal artery). It counts as in vivo, rat. To be noted: for ED30: Rattus norvegicus, oral, read-out: Oral Antihypertensive Effects in Renal Hypertensive Rats ED30. The source says: This procedure increases blood pressure by increasing renin production with consequent elevation of AII levels. […] Arterial blood pressure is continuously measured directly through a carotid artery cannula and recorded using a pressure transducer and a polygraph. Blood pressure levels after treatment are compared to pretreatment levels to determine the antihypertensive effects of the compounds.

As for `CCCc1nc(CC)c(C(=O)OC(C)OC(=O)OC(C)(C)C)n1Cc1ccc(-c2ccccc2-c2nn[nH]n2)cc1` (stereo not drawn) [Example 12], the IC50 at AII receptor turned out to be 5 nM. Moreover, the ED30 in the experiment with Renal Hypertensive Rats amounted to 0.3 mg/kg.

As to `CCCc1nc(CC)c(C(=O)OCc2oc(=O)oc2C)n1Cc1ccc(-c2ccccc2-c2nn[nH]n2)cc1` [Example 13, 1,3-Dioxa-5-methyl-cyclopenten-2-one-4-ylmethyl 4-ethyl-2-propyl-1-[[2'-(tetrazol-5-yl)biphenyl-4-yl]methyl]imidazole-5-carboxylate], the IC50 on AII receptor was determined as 3 nM. Also, the ED30 with Renal Hypertensive Rats stood at 0.1 mg/kg. As for `CCCc1nc(CC)c(C(=O)OCc2oc(=O)oc2C(C)(C)C)n1Cc1ccc(-c2ccccc2-c2nn[nH]n2)cc1` [Example 14, (5-(1.1-Dimethylethyl)-1.3-dioxa-cyclopenten-2-one-4-yl)methyl 4-ethyl-2-propyl-1-[[2'-(tetrazol-5-yl)biphenyl-4-yl)methyl]imidazole-5-carboxylate], the IC50 at AII receptor stood at 3 nM. Moreover, in the experiment on Renal Hypertensive Rats, the ED30 amounted to 0.3 mg/kg. With “Methoxydimethylacetoxymethyl 4-ethyl-2-propyl-1-[[2'-(tetrazol-5-yl)biphenyl-4-yl]methyl]imidazole-5-carboxylate [Example 8]”, in the experiment with Renal Hypertensive Rats, the “Oral Antihypertensive Effects in Renal Hypertensive Rats ED30” value is reported as 0.03 mg/kg. As for `CCCc1nc(CC)c(C(=O)OCN(C)C)n1Cc1ccc(-c2ccccc2-c2nnn[nH]2)cc1` [Example 2, (N,N-Dimethylamino)methyl 4-ethyl-2-propyl-1-[[2'-(tetrazol-5-yl)biphenyl-4-yl]methyl]imidazole-5-carboxylate], the IC50 at AII receptor was 100 nM. Regarding `CCCc1nc(CC)c(C(=O)OC(C)OC(=O)OC)n1Cc1ccc(-c2ccccc2-c2nn[nH]n2)cc1` (stereo not drawn) [Example 11], on AII receptor, the IC50 is 4 nM. For the same molecule, the ED30 in the experiment on Renal Hypertensive Rats turned out to be 0.02 mg/kg. Turning to `CCCc1nc(CC)c(C(=O)OCOC(=O)C(C)(C)C)n1Cc1ccc(-c2ccccc2-c2nnn[nH]2)cc1` [Example 5, Trimethylacetoxymethyl 4-ethyl-2-propyl-1-[[2'-(tetrazol-5-yl)biphenyl-4-yl]methyl]imidazole-5-carboxylate], the IC50 on AII receptor came to 2 nM. In addition, the ED30 with Renal Hypertensive Rats stood at 0.03 mg/kg. As to `CCCc1nc(CC)c(C(=O)OCOC(=O)OC)n1Cc1ccc(-c2ccccc2-c2nn[nH]n2)cc1` [Example 7], at AII receptor, the IC50 came out at 3 nM.

On to `CCCc1nc(CC)c(C(=O)OCc2oc(=O)oc2-c2ccccc2)n1Cc1ccc(-c2ccccc2-c2nn[nH]n2)cc1` [Example 15], for which the IC50 on AII receptor is 6 nM. Further, the ED30 in the experiment with Renal Hypertensive Rats worked out at 0.3 mg/kg.

Regarding `CCCc1nc(CC)c(C(=O)OCOC(=O)OC(C)(C)C)n1Cc1ccc(-c2ccccc2-c2nnn[nH]2)cc1` [Example 9, t-Butoxycarbonyloxymethyl 4-ethyl-2-propyl-1-[[2'-(tetrazol-5-yl)biphenyl-4-yl]methyl]imidazole-5-carboxylate], on AII receptor, the IC50 was 6 nM. Besides, the ED30 in the experiment with Renal Hypertensive Rats came out at 0.02 mg/kg.

Consider “Trimethylacetoxymethyl 4-ethyl-2-propyl-1-[[2'-(N-trimethylacetoxymethyl(tetrazol-5-yl))biphenyl- 4-yl]methyl]imidazole-5-carboxylate [Example 6]”, for which the IC50 on AII receptor was 20 nM.

As usually defined, the IC50 is the point on the concentration scale where inhibition reaches its midpoint.
